# Results reported in US8207189B2, “Compound having affinity for amyloid” (Nihon Medi-Physics Co., Ltd., priority 2007, dated 2012).
# What was measured:
# [1] = WO03/106439; cited from earlier work
# [2] = transferability into brain and clearance after intravenous injection; format: in vivo, rat; conditions: for Radioactive distribution per unit weight in brain, After 2 min. / Radioactive distribution per unit weight in brain, After 5 min. / Radioactive distribution per unit weight in brain, After 30 min. / Radioactive distribution per unit weight in brain, After 60 min.: male Wistar rats, intravenous injection; for radioactive accumulation in brain two minutes after the injection (in words) / clearance from brain in 60 minutes (in words): rats, intravenous; for Radioactive distribution per unit weight in brain, After 2 min. / radioactive accumulation in brain two minutes after the injection (in words): 2 min
# Procedure: Using Compound 1 (Example 10) and Compound 2 (Example 11), a time course change of radioactive accumulation in brain of male Wistar rats (7-week old) was measured.
# A diethyl ether solution of Compound 1 (Example 10) prepared in Example 3, a diethyl ether solution of Compound 2 (Example 11) prepared in Example 6 and a diethyl ether solution of [^123I]-IMPY (Comparative Example 5) prepared in Reference Example 1 were each diluted with 10 mg/mL ascorbic acid-containing physiological saline solution to adjust to a radioactive concentration of 8-12 MBq/mL. 0.05 mL each of the prepared sample solutions was injected under thiopental anesthesia into the tail vein of the rats. The rats were sacrificed by bleeding from abdominal artery, and brains were removed and subjected to measurement of mass of brains and further subjected to measurement of radioactivity (hereinafter referred to as A in this Example) with a single channel analyzer (detector type: SP-20 manufactured by OHYO KOKEN KOGYO Co., Ltd.) 2, 5, 30 and 60 minutes after the injection. Further, the radioactivity level of the rest of the whole body was measured in the same manner as above (hereinafter referred to as B in this Example). Using these measurement results, radioactive distribution per unit weight of brain (% ID/g) at the respective time points were calculated in accordance with the following formula (3).
# Three animals were used for the experiment at the respective time points.
# Using Compound 4 and Compound 6, a time course change of radioactive accumulation in brain of male Wistar rats (7-week old) was measured.
# Compound 4 (Example 22), Compound 6 (Example 23) and a solution of [^123I]-IMPY (Comparative Example 8) prepared above in Reference Example 1 were each diluted with a 10 mg/mL ascorbic acid-containing physiological saline solution to prepare solutions (20-31 MBq/mL in radioactive concentration). 0.05 mL each of the prepared sample solutions was injected under thiopental anesthesia into the tail vein of the respective Wistar rat (7-week old). The rats were sacrificed by bleeding from abdominal artery, and brains were removed and subjected to measurement of mass of brains and further subjected to measurement of radioactivity (hereinafter referred to as A in this Example) with a single channel analyzer (detector type: SP-20 manufactured by OHYO KOKEN KOGYO Co., Ltd.) 2, 5, 30 and 60 minutes after the injection. Further, the radioactivity level of the rest of the whole body was measured in the same manner as above (hereinafter referred to as B in this Example). Using these measurement results, radioactive distribution per unit weight of brain (% ID/g) at the respective time points were calculated in accordance with the following formula (5).
# [3] = partition coefficient based on the octanol extraction method; format: physicochemical; conditions: octanol / 10 mmol/L phosphate buffer pH 7.4
# Procedure: Partition coefficients based on the octanol extraction method (hereinafter referred to as log Poctanol) were measured, which are generally known as an indicator of permeability of compounds through the blood-brain barrier (hereinafter referred to as BBB).
# A diethyl ether solution of Compound 1 prepared in Example 3 (Example 8), a diethyl ether solution of Compound 2 prepared in Example 6 (Example 9), and a diethyl ether solution of [^123I]-IMPY prepared in Reference Example 1 (Comparative Example 4) were each diluted with 10 mg/mL ascorbic acid-containing physiological saline solution, and adjusted to a radioactive concentration of 20-30 MBq/mL. To 2 mL of octanol, 10 μL each of the prepared sample solutions was added, 2 mL of 10 mmol/L phosphate buffer (pH 7.4) was added, followed by stirring for 30 seconds. After the mixture was centrifuged with a low-speed centrifuge (2000 rpm×60 min.), the octanol layer and the water layer were sampled each in an amount of 1 mL, and subjected to measurement of radioactivity count with an autowell gamma system (Type: ARC-301B, manufactured by Aloka). Using the obtained radioactivity count, log Poctanol was calculated in accordance with the equation (2).
# A diethyl ether solution (Example 20) of Compound 4 prepared in Example 16, a diethyl ether solution (Example 21) of Compound 6 prepared in Example 19, and a diethyl ether solution (Comparative Example 7) of [^123I]-IMPY were each diluted with a 10 mg/mL ascorbic acid-containing physiological saline solution to adjust to a radioactive concentration of 20-30 MBq/mL. To 2 mL of octanol, 10 μL each of the prepared sample solution was added, and 2 mL of 10 mmol/L phosphate buffer (pH 7.4) was further added, followed by stirring for 30 seconds. After the mixture was centrifuged with a low-speed centrifuge (2000 rpm×60 min.), the octanol layer and the water layer were sampled each in an amount of 1 mL, and subjected to measurement of radioactivity count with an autowell gamma system (Type: ARC-301B, manufactured by Aloka). Using the obtained radioactivity count, log Poctanol was calculated in accordance with the equation (4).
# [4] = target: T1, amyloid (aggregated Aβ1-42) injected into amygdaloid nucleus (Homo sapiens, UniProt P05067); assay: confirmation of imaging of amyloid in brain (autoradiogram, Aβ1-42 injected rats); format: in vivo, rat; conditions: brain slice 60 minutes after intravenous injection, Aβ1-42
# T1 construct: Aβ1-42 (manufactured by Wako) was dissolved in phosphate buffer (pH 7.4); purchased Wako
# Procedure: (§1) (1) Aβ1-42 (manufactured by Wako) was dissolved in phosphate buffer (pH 7.4) and shaken at 37° C. for 72 hours, to obtain a 1 mg/mL suspension of aggregated Aβ (hereinafter referred to as amyloid suspension in the Examples).
# (§2) (2) 2.5 μL (corresponding to […]) of the amyloid suspension was injected into an amygdaloid nucleus on one side of a male Wistar rat (7-week old). As a control, 2.5 μL of a phosphate buffered physiological saline solution (pH 7.4) was injected into an amygdaloid nucleus on the other side of the rat. The rats were examined 1 day after the injection of the amyloid suspension and the phosphate buffered physiological saline solution (pH 7.4).
# (§3) (3) Compound 1 was dissolved in a 10 mg/mL ascorbic acid-containing physiological saline solution to obtain a sample solution (22 MBq/mL in radioactivity concentration in the sample solution). This solution was injected under thiopental anesthesia into the rat through the tail vein (dosage: 0.5 mL, dosed radioactivity: 11-13 MBq equivalent).
# (§4) (4) Brain was removed 60 minutes after the injection to prepare a brain slice of 10 μm in thickness with a microtome (type: CM3050S, manufactured by LEICA). The brain slice was exposed to an imaging plate for 20 hours, and then image analysis was carried out by use of a Bio-imaging Analyzer (type: BAS-2500; manufactured by FUJIFILM Corporation).
# (§5) Thus, it was confirmed that amyloid was deposited on the slice (FIG. 6b).
# (§6) The same procedures as in Example 12 were performed except using a solution of Compound 2 in a 10 mg/mL ascorbic acid as a sample solution (the radioactive concentration of the sample solution was 25 MBq/mL).
# (§7) (1) Aβ1-42 (manufactured by Wako) was dissolved in phosphate buffer (pH 7.4) and shaken at 37° C. for 72 hours, to obtain 1 mg/mL of a suspension of aggregated Aβ (hereinafter referred to as amyloid suspension in the Examples).
# (§8) (3) A sample solution (30 MBq/mL in radioactivity concentration, Example 24) in which Compound 4 was dissolved in a 10 mg/mL ascorbic acid-containing physiological saline solution and a sample solution (30 MBq/mL in radioactivity concentration, Example 25) in which Compound 6 was dissolved in a 10 mg/mL ascorbic acid-containing physiological saline solution were prepared. This solution was injected under thiopental anesthesia into the rat through the tail vein (dosage: 0.5 mL, dosed radioactivity: 11-15 MBq equivalent).
# (§9) Thus, it was confirmed that amyloid was deposited on the slice (FIG. 12 and FIG. 13).
# [5] = test system: amyloid (aggregated Aβ1-42) injected into amygdaloid nucleus; assay: as above; format: in vivo, rat; conditions: brain slice 60 minutes after intravenous injection
# Procedure: as §1, §2, §3, §4, §5, §6, §7, §8, §9
# [6] = rats, [11C]-labeled; cited from earlier work
# [7] = test system: amyloid (aggregated Aβ1-40) injected into amygdaloid nucleus; assay: ex vivo autoradiogram using rats of amyloid injected model (Aβ1-40); format: in vivo, rat; conditions: brain slice 60 minutes after intravenous injection
# Procedure: (§10) (1) Aβ1-40 (manufactured by Peptide Institute, INC.) was dissolved in phosphate buffer (pH 7.4) and shaken at 37° C. for 72 hours, to obtain a 1 mg/mL suspension of aggregated Aβ (hereinafter referred to as amyloid suspension in this Example).
# as §2
# as §3, with “[^123I]-IMPY” for “Compound 1”, “(29” for “(22”, “14.5” for “11-13”
# as §4, with “Corporation). […]” for “Corporation).”
# [8] = target: T2, amyloid (aggregated Aβ1-40) injected into amygdaloid nucleus (Homo sapiens, UniProt P05067); assay: as above; format: in vivo, rat; conditions: brain slice 60 minutes after intravenous injection, Aβ1-40
# T2 construct: Aβ1-40 (manufactured by Peptide Institute, INC.) was dissolved in phosphate buffer (pH 7.4); purchased Peptide Institute, INC
# Procedure: as §10, §2
# as §3, with “[^123I]-IMPY” for “Compound 1”, “(29” for “(22”, “14.5” for “11-13”
# as §4, with “Corporation). […]” for “Corporation).”
# [9] = Table 6 (Examples 20-21, Comparative Example 7)
# [10] = Table 4 (Examples 8-9, Comparative Example 4)
# T1 sequence (P05067 672-713): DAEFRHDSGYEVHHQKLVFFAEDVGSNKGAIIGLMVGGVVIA
# T2 sequence (P05067 672-711): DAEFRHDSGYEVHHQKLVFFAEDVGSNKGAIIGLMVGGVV
Compound,"Radioactive distribution per unit weight in brain, After 2 min. ([2]; Table 7) [% ID/g]","Radioactive distribution per unit weight in brain, After 5 min. ([2]; Table 7) [% ID/g]","Radioactive distribution per unit weight in brain, After 30 min. ([2]; Table 7) [% ID/g]","Radioactive distribution per unit weight in brain, After 60 min. ([2]; Table 7) [% ID/g]",radioactive accumulation in brain two minutes after the injection (in words) [2],clearance from brain in 60 minutes (in words) [2],"logPoctanol value [3, 9]",accumulation of radioactivity in amygdaloid nucleus on the amyloid-injected side [4],accumulation of radioactivity at sites other than the amyloid injected sites [5],accumulation of radioactivity in amygdaloid nucleus on the physiological saline-injected side [5],further results
"CN(C)c1ccc(-c2cn3cc(I)ccc3n2)cc1 [IMPY, 6-iodo-2-[4′-(N,N-dimethylamino)phenyl]imidazo[1,2-a]pyridine]",,,,,,,,,,,reverse mutation test result [1]: positive
"2-[4′-(3″-hydroxypropoxy)phenyl]-6-[^123I]iodoimidazo[1,2-a]pyridine [Compound 6]",0.81,0.56,0.07,0.02,significant accumulation,rapidly clear away,2.1,marked accumulation of radioactivity,little accumulation of radioactivity,no significant accumulation of radioactivity,
"CNc1ccc(/C=C/c2ccc(O)cc2)cc1 [SB-13, (E)-4-methylamino-4′-hydroxystilbene]",,,,,,,,,,,clearance from normal tissues [6]: it cannot be said that the clearance is sufficiently fast
"2-(4′-ethoxyphenyl)-6-[^123I]iodoimidazo[1,2-a]pyridine [Compound 2]",,,,,significant radioactive accumulation,rapidly clear away,,marked accumulation of radioactivity,some radioactive accumulation,no significant accumulation of radioactivity,"Radioactive distribution per unit weight in brain, After 2 min. ([2]; Table 5): 0.89 % ID/g; Radioactive distribution per unit weight in brain, After 5 min. ([2]; Table 5): 0.66 % ID/g; Radioactive distribution per unit weight in brain, After 30 min. ([2]; Table 5): 0.13 % ID/g; Radioactive distribution per unit weight in brain, After 60 min. ([2]; Table 5): 0.04 % ID/g; logPoctanol value [3, 10]: 2.1"
"CN(C)c1ccc(-c2cn3cc([123I])ccc3n2)cc1 [[^123I]-IMPY, reference compound]",1.19,0.97,0.23,0.09,,,2.1,,,,"Radioactive distribution per unit weight in brain, After 2 min. ([2]; Table 5): 1.19 % ID/g; Radioactive distribution per unit weight in brain, After 5 min. ([2]; Table 5): 0.97 % ID/g; Radioactive distribution per unit weight in brain, After 30 min. ([2]; Table 5): 0.23 % ID/g; Radioactive distribution per unit weight in brain, After 60 min. ([2]; Table 5): 0.09 % ID/g; logPoctanol value [3, 10]: 1.9; accumulation in white matter where amyloid was not injected [7]: non-specific accumulation was observed; accumulation of radioactivity in amygdaloid nucleus on the amyloid-injected side [8]: marked accumulation of radioactivity"
"CC(=C(C#N)C#N)c1ccc2cc(N(C)CCF)ccc2c1 [FDDNP, 2-(1-{6-[(2-fluoroethyl)(methyl)amino]-2-naphthyl}ethylidene)malononitrile]",,,,,,,,,,,reverse mutation test result [1]: positive
"2-[3′-(2″-hydroxyethoxy)phenyl]-6-[^123I]iodoimidazo[1,2-a]pyridine [Compound 4]",0.56,0.28,0.04,0.01,significant accumulation,rapidly clear away,2.5,marked accumulation of radioactivity,little accumulation of radioactivity,no significant accumulation of radioactivity,
